Measured values taken from US9062037B2, “Tazarotene derivatives” (Stiefel Laboratories, Inc., priority 2009, dated 2015).
Like-named read-outs stand apart in the source and are kept apart here.

Columns and labels:
[1] = in vitro; details: human, liver microsomes, pH 7.4, Half-life, HLM, Complete
[2] = for k constant: HLM
[3] = In vitro application of DUAC gel/TAZORAC cream mixture to split-thickness human skin; tazarotene and degradants quantified by LC/MS/MS; type: in vitro ADME; details: under these experimental conditions
Procedure: An in vitro study was conducted to assess the formation of tazarotene degradants following the application of a mixture of DUAC gel and TAZORAC cream to human skin.
Equal portions of DUAC gel and TAZORAC cream were dispensed into a glass vial and mixed for approximately three minutes with a metal spatula to ensure a homogenous mixture. Samples of European DUAC gel and US DUAC gel were used in separate experiments. […] The test mixtures were then applied to the surface of split-thickness skin (˜0.25 mm) at a dose of 15.6 mg/cm^2 and spread evenly using a positive displacement pipette.
After 2 and 6 hours, the skin samples were washed, tape stripped twice, and then the epidermis was peeled from the dermis using a heat block. The skin samples were then extracted with acetonitrile overnight at 4° C. The distribution of tazarotene and its degradants within the epidermis, dermis and surface wash were quantified by LC/MS/MS with a 50 pg/mL LOQ. The experiments were performed under yellow light conditions. For the purposes of comparison, mixtures of DUAC gel and TAZORAC cream were also prepared and retained for stability testing at 0, 2 and 6 hour time points.

In the case of `CC1(C)CCSc2ccc(C#Cc3ccc(C(=O)O)cn3)cc21` [Tazarotenic acid], the half-life at 1 µM ([1]; 1 μM) is reported as 1.8 h, the half-life at 10 µM ([1]; 10 μM) is reported as 2.45 h and the “Test Article remaining, percent of initial concentration” value (from here on “Test Article remaining, percent”) ([2]; 1 μM initial concentration, Complete (with NADPH), 0 min) is reported as 100%. The “Test Article remaining, percent” value ([2]; 1 μM initial concentration, Complete (with NADPH), 15 min) was 89.9%, the “Test Article remaining, percent” value ([2]; 1 μM initial concentration, Complete (with NADPH), 30 min) was 82.0% and the “Test Article remaining, percent” value ([2]; 1 μM initial concentration, Complete (with NADPH), 45 min) was 75.8%. The “Test Article remaining, percent” value ([2]; 1 μM initial concentration, Complete (with NADPH), 60 min) was 68.0%, the “Test Article remaining, percent” value ([2]; 1 μM initial concentration, Without NADPH, 0 min) was 100% and the “Test Article remaining, percent” value ([2]; 1 μM initial concentration, Without NADPH, 15 min) was 100%. The “Test Article remaining, percent” value ([2]; 1 μM initial concentration, Without NADPH, 30 min) was 101%, the “Test Article remaining, percent” value ([2]; 1 μM initial concentration, Without NADPH, 45 min) was 102% and the “Test Article remaining, percent” value ([2]; 1 μM initial concentration, Without NADPH, 60 min) was 101%. The “Test Article remaining, percent” value ([2]; 10 μM initial concentration, Complete (with NADPH), 0 min) was 100%, the “Test Article remaining, percent” value ([2]; 10 μM initial concentration, Complete (with NADPH), 15 min) was 93.1% and the “Test Article remaining, percent” value ([2]; 10 μM initial concentration, Complete (with NADPH), 30 min) was 88.6%. The “Test Article remaining, percent” value ([2]; 10 μM initial concentration, Complete (with NADPH), 45 min) was 77.8%, the “Test Article remaining, percent” value ([2]; 10 μM initial concentration, Complete (with NADPH), 60 min) was 77.4% and the “Test Article remaining, percent” value ([2]; 10 μM initial concentration, Without NADPH, 0 min) was 100%. The “Test Article remaining, percent” value ([2]; 10 μM initial concentration, Without NADPH, 15 min) was 102%, the “Test Article remaining, percent” value ([2]; 10 μM initial concentration, Without NADPH, 30 min) was 99.0% and the “Test Article remaining, percent” value ([2]; 10 μM initial concentration, Without NADPH, 45 min) was 106%. For the same compound, the “Test Article remaining, percent” value ([2]; 10 μM initial concentration, Without NADPH, 60 min) was 102%, the k constant ([2]; 1 μM, Complete) was −0.0064 and the k constant ([2]; 1 μM, Without NADPH) was 0.0003. The k constant ([2]; 10 μM, Complete) was −0.0047, the k constant ([2]; 10 μM, Without NADPH) was 0.0006 and the “metabolized by human liver microsomes” value ([2]; in the absence of NADPH) was “not metabolized”. The “metabolized by human liver microsomes to tazarotenic acid sulfoxide” value ([2]; in the presence of NADPH) was “slowly metabolized” and the “detection of tazarotenic acid” value [3] was “not detected”.
